Data as given in ChEMBL document CHEMBL3739422, “Hydroxytyrosol-Derived Compounds: A Basis for the Creation of New Pharmacological Agents for Cancer Prevention and Therapy” (J Med Chem, 2015).
Blank lines part the entries; values can stand above or below the compound they belong to.

Legend:
HeLa = test: Antioxidant activity in human HeLa cells assessed as reduction in iron-reactive oxidative stress preincubated for 4 hrs prior to FeSO4 addition measured after 1 hr by TBARS assay; assay type: functional; design: scale not given: the % may be the effect or the level left
Rattus norvegicus [1] = test: Induction of NO production in Wistar rat at 1 to 100 mg/kg, po qd administered for 7 days measured after 1 hr post last dose by enzyme immuno assay; assay type: functional
Platelet [2] = test: Inhibition of collagen-induced platelet aggregation in human whole blood preincubated for 10 mins prior to collagen addition measured after 10 mins by aggregometric analysis; assay type: functional, tissue-based
Rattus norvegicus [3] = test: Inhibition of collagen-induced platelet aggregation in po dosed Wistar rat administered for 7 days measured after 1 hr post last dose by aggregometric analysis; assay type: functional; conditions: read-out: ID50 (the source's name)
[4] = Cytotoxicity against human Caco2/TC7 cells assessed as growth inhibition at 5 uM after 24 hrs by WST-1 assay; assay type: functional; conditions: Caco-2, 24 h, read-out: GI
Rattus norvegicus [5] = test: Inhibition of A23187-induced TXA2 synthesis in Wistar rat at 1 to 100 mg/kg, po qd administered for 7 days measured after 1 hr post last dose by enzyme immunoassay; assay type: functional
[6] = Cytotoxicity against human Caco2/TC7 cells assessed as growth inhibition after 24 hrs by WST-1 assay; assay type: functional, cell-based; conditions: Caco-2, 24 h
A549 = test: Cytotoxicity against human A549 cells assessed as cell viability after 48 hrs by MTT assay; assay type: functional, cell-based; conditions: A549, 48 h
MRC5 = test: Cytotoxicity against human MRC5 cells assessed as cell viability after 48 hrs by MTT assay; assay type: cell-based; conditions: MRC5, 48 h
[7] = Selectivity ratio of IC50 for human MRC5 cells to IC50 for human A549 cells; assay type: ADME, cell-based; conditions: MRC5 cells versus A549 cells, read-out: Ratio IC50
THP-1 [8] = test: Inhibition of LPS-induced TNFalpha production in human THP1 cells at 100 uM after 3 hrs by microplate reader analysis; assay type: functional; conditions: THP-1, 3 h
THP-1 [9] = test: Inhibition of LPS-induced TNFalpha production in human THP1 cells at 10 uM after 3 hrs by microplate reader analysis; assay type: functional; conditions: THP-1, 3 h
THP-1 [10] = test: Inhibition of LPS-induced TNFalpha production in human THP1 cells at 0.5 uM after 3 hrs by microplate reader analysis; assay type: functional; conditions: THP-1, 3 h
Rattus norvegicus [11] = test: Inhibition of collagen-induced platelet aggregation in Wistar rat at 20 mg/kg, po qd administered for 7 days measured after 1 hr post last dose by aggregometric analysis; assay type: functional
Rattus norvegicus [12] = test: Inhibition of plasma lipid peroxide in Wistar rat at 20 mg/kg, po qd administered for 7 days measured after 1 hr post last dose by spectrophotometric analysis; assay type: functional
Rattus norvegicus [13] = test: Inhibition of A23187-induced TXA2 synthesis in Wistar rat at 20 mg/kg, po qd administered for 7 days measured after 1 hr post last dose by enzyme immuno assay; assay type: functional
Rattus norvegicus [14] = test: Induction of NO production in Wistar rat at 1 to 10 mg/kg, po qd administered for 7 days measured after 1 hr post last dose by enzyme immuno assay; assay type: functional
Platelet [15] = test: Inhibition of collagen-induced platelet aggregation in human platelet rich plasma preincubated for 10 mins; assay type: functional, cell-free
Platelet [16] = test: Inhibition of ADP-induced platelet aggregation in human platelet rich plasma preincubated for 10 mins; assay type: functional, cell-free

Compound: CCCCCCCC/C=C\CCCCCCCC(=O)OCCc1ccc(O)c(O)c1
Activity (HeLa): 38%

IC50 (Platelet [2]): 10 µM
Compound: CC(=O)OCCc1ccc(O)c(O)c1
inhibition (INH) (Rattus norvegicus [1]): 66% | ED50 (Rattus norvegicus [3]): 16.1 mg/kg/day | inhibition of growth at 5 µM [4]: 20% | Activity (HeLa): 36% | inhibition (INH) (Rattus norvegicus [5]): 37% | IC50 [6]: 32 µM

Compound: CCCCCCCCCCCCOCCc1ccc(O)c(O)c1
IC50 (A549): 20 µM | IC50 (MRC5): 49 µM | selectivity ratio [7]: 2.46

Compound: Oc1cc2c(cc1O)C(c1ccccc1)OCC2 (stereo not given)
inhibition at 100 µM (THP-1 [8]): 80% | inhibition at 10 µM (THP-1 [9]): 60% | inhibition at 0.5 µM (THP-1 [10]): 30%

IC50 (Platelet [2]): 0.1 µM
Compound: CCCCCCOCCc1ccc(O)c(O)c1
inhibition in vivo at 20 mg/kg (Rattus norvegicus [11]): 58.7% | inhibition in vivo at 20 mg/kg (Rattus norvegicus [12]): 84.7% | inhibition in vivo at 20 mg/kg (Rattus norvegicus [13]): 58.7%

Compound: CC(=O)Oc1ccccc1C(=O)O [ASPIRIN]
ED50 (Rattus norvegicus [3]): 2.42 mg/kg/day | inhibition (INH) (Rattus norvegicus [14]): 64%

Compound: OCCc1ccc(O)c(O)c1 [HYDROXYTYROSOL]
inhibition (INH) (Rattus norvegicus [1]): 34.2% | IC50 (Platelet [15]): 67 µM | ED50 (Rattus norvegicus [3]): 48.2 mg/kg/day | IC50 (Platelet [16]): 27 µM | inhibition (INH) (Rattus norvegicus [5]): 30%
